Source: patent US9951065B2 (Gilead Sciences, Inc., priority 2015, dated 2018)

Target: T1, IDO1 (Homo sapiens, UniProt P14902)
T1 construct: HeLa cells were treated with a test compound in the presence of IFNγ, which induces IDO1 expression; host or cells: H1-HeLa cells, IDO1 induced with IFNγ
Test: Cell-based (HeLa) assay for measurement of IDO1 inhibition (kynurenine levels in supernatant after IFNγ induction)
Conditions: HeLa cells, geometric mean of a minimum of four determinations
Method in brief: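 IDO1 activity is read as kynurenine released into the medium, detected with Ehrlich's reagent (p-dimethylaminobenzaldehyde) at 480 nm after TCA treatment. HeLa cells were exposed 48 h to compounds in 0.5% DMSO alongside IFNγ induction. Values normalized to no-IFNγ and IFNγ controls; four-parameter EC50 given as geometric mean of ≥4 determinations.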

[1] = IFNγ-induced IDO1, kynurenine in supernatant after 48 hour incubation
[2] = IFNγ-induced IDO1, kynurenine in supernatant, 48 hour incubation

T1 sequence (P14902 whole entry): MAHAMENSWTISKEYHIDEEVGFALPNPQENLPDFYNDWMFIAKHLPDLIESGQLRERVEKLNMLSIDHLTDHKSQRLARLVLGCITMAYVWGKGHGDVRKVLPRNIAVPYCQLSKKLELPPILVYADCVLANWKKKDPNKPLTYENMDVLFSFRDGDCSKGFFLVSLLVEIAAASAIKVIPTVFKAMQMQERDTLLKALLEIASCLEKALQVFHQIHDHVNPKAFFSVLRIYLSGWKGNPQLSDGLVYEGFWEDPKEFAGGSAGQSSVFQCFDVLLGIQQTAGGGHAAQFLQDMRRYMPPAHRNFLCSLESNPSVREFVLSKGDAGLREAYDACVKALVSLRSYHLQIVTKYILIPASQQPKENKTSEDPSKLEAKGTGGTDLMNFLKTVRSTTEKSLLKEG

For CN(C)CCc1nc2c(/C(=N/O)Nc3ccc(F)c(Br)c3)cc(F)c(F)c2[nH]1 [Example 54, N-(3-Bromo-4-fluorophenyl)-2-(2-(dimethylamino)ethyl)-6,7-difluoro-N′-hydroxy-1H-benzo[d]imidazole-4-carboximidamide], the EC50 [1] was 461 nM.
O/N=C(\Nc1cc(Cl)ccc1F)c1ccnc2nc[nH]c12 [Example 60, N-(5-Chloro-2-fluorophenyl)-N′-hydroxy-1H-imidazo[4,5-b]pyridine-7-carboximidamide] showed an EC50 [1] of 322 nM.
With CC(CN1CCOCC1)Nc1nc2c(F)c(F)cc(/C(=N/O)Nc3ccc(F)c(Cl)c3)c2[nH]1 (stereo not shown) [Example 37, N-(3-Chloro-4-fluorophenyl)-4,5-difluoro-N′-hydroxy-2-((1-morpholinopropan-2-yl)amino)-1H-benzo[d]imidazole-7-carboximidamide] the EC50 [1] was 514 nM.
CN(C)CCNc1nc2c(F)c(F)cc(/C(=N/O)Nc3cccc(Cl)c3)c2[nH]1 [Example 431, N-(3-chlorophenyl)-2-((2-(dimethylamino)ethyl)amino)-4,5-difluoro-N′-hydroxy-1H-benzo[d]imidazole-7-carboximidamide] showed an EC50 [2] of 139 nM.
O/N=C(\Nc1cccc(Br)c1)c1cc(F)c(F)c2nc(NCCN3CCCC3)[nH]c12 [Example 331, N-(3-bromophenyl)-4,5-difluoro-N′-hydroxy-2-((2-(pyrrolidin-1-yl)ethyl)amino)-1H-benzo[d]imidazole-7-carboximidamide] gave an EC50 [2] of 692 nM.
CNCc1nc2c(/C(=N/O)Nc3ccc(F)c(Cl)c3)cc(F)c(F)c2[nH]1 [Example 48, N-(3-Chloro-4-fluorophenyl)-4,5-difluoro-N′-hydroxy-2-((methylamino)methyl)-1H-benzo[d]imidazole-7-carboximidamide] gave an EC50 [1] of 434 nM.
CNCCc1nc2nccc(/C(=N/O)Nc3ccc(F)c(Cl)c3)c2[nH]1 [Example 188, N-(3-Chloro-4-fluorophenyl)-N′-hydroxy-2-(2-(methylamino)ethyl)-1H-imidazo[4,5-b]pyridine-7-carboximidamide] gave an EC50 [1] of 1510 nM.
CNCc1nc2c(F)ccc(/C(=N/O)Nc3ccc(F)c(Cl)c3)c2[nH]1 [Example 290, N-(3-chloro-4-fluorophenyl)-4-fluoro-N′-hydroxy-2-((methylamino)methyl)-1H-benzo[d]imidazole-7-carboximidamide] showed an EC50 [1] of 1290 nM.
CC(C)CNCc1nc2nccc(/C(=N/O)Nc3ccc(F)c(Cl)c3)c2[nH]1 [Example 196, N-(3-Chloro-4-fluorophenyl)-N′-hydroxy-2-((isobutylamino)methyl)-1H-imidazo[4,5-b]pyridine-7-carboximidamide] showed an EC50 [1] of 1330 nM.
CN(C)CCNc1nc2c(F)ccc(/C(=N/O)Nc3cccc(Cl)c3)c2[nH]1 [Example 384, N-(3-chlorophenyl)-2-((2-(dimethylamino)ethyl)amino)-4-fluoro-N′-hydroxy-1H-benzo[d]imidazole-7-carboximidamide] showed an EC50 [2] of 290 nM.
With CC(Cc1nc2nccc(/C(=N/O)Nc3ccc(F)c(Cl)c3)c2[nH]1)N(C)C (stereo not shown) [Example 328, N-(3-chloro-4-fluorophenyl)-2-(2-(dimethylamino)propyl)-N′-hydroxy-1H-imidazo[4,5-b]pyridine-7-carboximidamide] the EC50 [2] was 3240 nM.
With CC(CCNc1nc2c(F)c(F)cc(/C(=N/O)Nc3ccc(F)c(Cl)c3)c2[nH]1)N(C)C (stereo not shown) [Example 353, N-(3-chloro-4-fluorophenyl)-2-((3-(dimethylamino)butyl)amino)-4,5-difluoro-N′-hydroxy-1H-benzo[d]imidazole-7-carboximidamide] the EC50 [2] was 1300 nM.
COc1ccc(CNCCc2nc3nccc(/C(=N/O)Nc4ccc(F)c(Cl)c4)c3[nH]2)c(OC)c1 [Example 274, N-(3-chloro-4-fluorophenyl)-2-(2-((2,4-dimethoxybenzyl)amino)ethyl)-N′-hydroxy-1H-imidazo[4,5-b]pyridine-7-carboximidamide] showed an EC50 [1] of 1970 nM.
